# Test results published in patent US20250313575A1, “MACROCYCLES AS LRRK2 INHIBITORS, PHARMACEUTICAL COMPOSITIONS, AND USES THEREOF” (Merck Sharp & Dohme LLC, priority 2022, published 2025).
# Where a name gives a salt, the structure may show the parent alone.
# Target: GST-tagged truncated human mutant G2019S LRRK2 (Homo sapiens (Human), UniProt Q5S007, G2019S)
# Assay: LRRK2 G2019S Km ATP LanthaScreen assay
# Type: biochemical
# Conditions: G2019S LRRK2, 134 μM ATP (Km ATP), LRRKtide substrate
# Protocol: Unless otherwise noted, all reactions are magnetically allowed to stir, diethyl ether used in the experiments described below is Fisher ACS certified material stabilized with BHT, and “concentrated” and/or “solvent removed under reduced pressure” means evaporating the solvent from a solution or mixture using a rotary evaporator or vacuum pump. Unless otherwise noted, flash chromatography is carried out on a Teledyne Isco (Lincoln, NE), Analogix (Burlington, WI), or Biotage (Stockholm, SWE) automated chromatography system using a commercially available cartridge as the column. Columns may be purchased from Teledyne Isco, Analogix, Biotage, Varian (Palo Alto, CA), or Supelco (Bellefonte, PA) and are usually filled with silica gel as the stationary phase. Reverse phase prep-HPLC conditions, where used, can be found at the end of each experimental section. Aqueous solutions were concentrated on a Genevac (Ipswich, ENG) or by freeze-drying/lyophilization. Unless otherwise noted, all LRRK2 pIC50 data presented in tables refers to the LRRK2 G2019S Km ATP LanthaScreen™ assay (Life Technologies Corp., Carlsbad, CA) that is described in the Biological Assay section.
# The LRRK2 kinase activity reported herein as IC50 values was determined with LanthaScreen™ technology from Life Technologies Corporation (Carlsbad, CA) using GST-tagged truncated human mutant G2019S LRRK2 in the presence of the fluorescein-labeled peptide substrate LRRKtide, also from Life Technologies. The data presented for the […] depending on the specific conditions and reagents used. Assays were performed in the presence of 134 μM ATP (Km ATP). Upon completion, the assay was stopped and phosphorylated substrate detected with a terbium (Tb)-labeled anti-pERM antibody (cat. no. PV4898). The compound dose response was prepared by diluting a 10 mM stock of compound to a maximum concentration of 9.99 μM in 100% dimethylsulfoxide followed by custom fold serial dilution in dimethylsulfoxide nine times. Twenty nanoliters of each dilution was spotted via a Labcyte Echo onto a 384-well black-sided plate (Corning 3575) followed by 15 μl of a 1.25 nM enzyme solution in 1× assay buffer (50 mM Tris pH 8.5, 10 mM MgCl2, 0.01% Brij-35, 1 mM EGTA, 2 mM dithiothreitol, 0.05 mM sodium orthovanadate). Following a 15-minute incubation at room temperature, the kinase reaction was started with the addition of 5 μl of 400 nM fluorescein-labeled LRRKtide peptide substrate and 134 μM ATP solution in 1× assay buffer. The reaction was allowed to progress at ambient temperature for 90 minutes. The reaction was then stopped by the addition of 20 μl of TR-FRET Dilution Buffer (Life Technologies, Carlsbad, CA) containing 2 nM Tb-labeled anti-phospho LRRKtide antibody and 10 mM EDTA (Life Technologies, Carlsbad, CA). After an incubation of 1 h at room temperature, the plate was read on an EnVision multimode plate reader (Perkin Elmer, Waltham, MA) with an excitation wavelength of 337 nm (Laser) and a reading emission at both 520 and 495 nm. Compound IC50s were interpolated from nonlinear regression best fits of the log of the final compound concentration, plotted as a function of the 520/495-nm emission ratio using Activity base. Abase uses a 4 parameter (4P) logistic fit based on the Levenberg-Marquardt algorithm.
# GST-tagged truncated human mutant G2019S LRRK2, sequence (Q5S007 970-2527 G2019S): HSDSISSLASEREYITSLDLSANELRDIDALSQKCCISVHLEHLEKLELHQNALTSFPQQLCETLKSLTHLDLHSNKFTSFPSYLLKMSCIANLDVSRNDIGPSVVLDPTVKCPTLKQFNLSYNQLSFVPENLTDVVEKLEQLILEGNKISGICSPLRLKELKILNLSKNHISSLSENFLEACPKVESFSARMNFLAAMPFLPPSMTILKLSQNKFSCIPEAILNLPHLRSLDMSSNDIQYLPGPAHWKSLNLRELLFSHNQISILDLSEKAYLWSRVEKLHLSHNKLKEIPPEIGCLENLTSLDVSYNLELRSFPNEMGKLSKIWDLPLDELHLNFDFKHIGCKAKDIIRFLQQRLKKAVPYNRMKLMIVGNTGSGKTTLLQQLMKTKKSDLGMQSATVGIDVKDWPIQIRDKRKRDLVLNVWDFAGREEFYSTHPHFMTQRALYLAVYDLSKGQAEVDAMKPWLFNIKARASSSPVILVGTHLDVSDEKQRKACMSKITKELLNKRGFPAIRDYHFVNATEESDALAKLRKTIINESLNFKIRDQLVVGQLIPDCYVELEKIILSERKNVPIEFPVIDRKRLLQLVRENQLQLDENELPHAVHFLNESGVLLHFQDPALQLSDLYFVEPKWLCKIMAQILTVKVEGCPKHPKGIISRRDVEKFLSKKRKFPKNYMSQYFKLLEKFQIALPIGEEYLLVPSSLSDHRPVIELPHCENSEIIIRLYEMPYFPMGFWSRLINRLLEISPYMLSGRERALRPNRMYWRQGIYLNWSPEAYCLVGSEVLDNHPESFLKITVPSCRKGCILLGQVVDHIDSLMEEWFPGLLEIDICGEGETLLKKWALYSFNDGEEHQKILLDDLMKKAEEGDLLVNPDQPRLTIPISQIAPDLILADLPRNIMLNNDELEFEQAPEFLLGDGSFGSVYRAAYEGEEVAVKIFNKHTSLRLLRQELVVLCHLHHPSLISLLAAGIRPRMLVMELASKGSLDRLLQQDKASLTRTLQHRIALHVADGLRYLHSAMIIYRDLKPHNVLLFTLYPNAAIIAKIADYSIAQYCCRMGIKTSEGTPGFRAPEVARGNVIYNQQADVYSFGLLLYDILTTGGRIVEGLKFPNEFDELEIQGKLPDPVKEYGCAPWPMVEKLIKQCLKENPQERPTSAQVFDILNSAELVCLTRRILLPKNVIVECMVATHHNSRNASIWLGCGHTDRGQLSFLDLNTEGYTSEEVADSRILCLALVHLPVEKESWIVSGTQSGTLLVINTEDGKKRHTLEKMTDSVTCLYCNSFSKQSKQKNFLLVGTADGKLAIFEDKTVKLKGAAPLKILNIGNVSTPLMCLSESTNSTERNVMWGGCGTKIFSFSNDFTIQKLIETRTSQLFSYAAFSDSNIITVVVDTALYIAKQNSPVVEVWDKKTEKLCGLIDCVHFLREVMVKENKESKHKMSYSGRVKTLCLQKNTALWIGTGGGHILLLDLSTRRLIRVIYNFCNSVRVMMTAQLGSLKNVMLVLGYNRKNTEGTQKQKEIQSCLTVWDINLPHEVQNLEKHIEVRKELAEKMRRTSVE
row,Molecule,LRRK2 pIC50
1,"Cc1nn(C2CCOC2)c2c1OC[C@@H]1CC[C@H]1Nc1nc(ncc1C(F)(F)F)N2 (stereo partly drawn) [Ex-2.74, (10aR,12aR)-1-methyl-3-((S)- or (10aR,12aR)-1-methyl-3-((R)-tetrahydrofuran-3-yl)-8-(trifluoromethyl)-3,4,10,10a,11,12,12a,13-octahydro-5,9-(azeno)cyclobuta[k]pyrazolo[4,3-b][1]oxa[4,6,10]triazacyclotridecine]",>10.09
2,"CC(C)c1nn(C2CCOC2)c2c1Nc1ncc(C(F)(F)F)c(n1)N[C@@H]1CC[C@H]1CO2 (stereo partly drawn) [Ex-1.18, (10aR,12aR)-3-isopropyl-1-((R)- or (10aR,12aR)-3-isopropyl-1-((S)-tetrahydrofuran-3-yl)-8-(trifluoromethyl)-1,4,10,10a,11,12,12a,13-octahydro-5,9-(azeno)cyclobuta[k]pyrazolo[3,4-b][1]oxa[4,6,10]triazacyclotridecine]",>10.09
3,"Cc1nn(C)c2c1OCC1(CNc3nc(ncc3C(F)(F)F)N2)CC12CCOCC2 (single isomer, unassigned) [Ex-2.16, (R)- or (S)-1″,3″-dimethyl-10″- (trifluoromethyl)-1″,2,3,5,6,7″,8″,14″. octahydro-5″H-dispiro[pyran-4,1′-cyclopropane-2′,6″- [9,13](azeno)pyrazolo[4,3-b][1]oxa[4,6,10]triazacyclotridecine]]",7.93
4,"Cc1nn(C)c2c1Nc1ncc(C(F)(F)F)c(n1)N[C@H](C)CCO2 [Ex-1.4, (R)-1,3,11-trimethyl-8-(trifluoromethyl)-1,4,10,11,12,13-hexahydro-5,9-(azeno)pyrazolo[3,4-b][1]oxa[4,6,10]triazacyclotridecine]",8.93
5,"Cc1nn(C)c2c1OCC1CC[C@H]1Nc1nc(ncc1C(F)(F)F)N2 (stereo partly drawn) [Ex-2.11, (10aR,12aS)- or (10aS,12aR)-1,3-dimethyl-8-(trifluoromethyl)-3,4,10,10a,11,12,12a,13-octahydro-5,9-(azeno)cyclobuta[k]pyrazolo[4,3-b][1]oxa[4,6,10]triazacyclotridecine]",>10.09
6,"Cc1nn(C2CCC2)c2c1OC[C@@H]1COC[C@H]1Nc1nc(ncc1Cl)N2 [Ex-2.49, (10aS,13aS)-8-chloro-3-cyclobutyl-1-methyl-3,4,10a,11,13a,14-hexahydro-10H,13H-5,9-(azeno)furo[3,4-k]pyrazolo[4,3-b][1]oxa[4,6,10]triazacyclotridecine]",>10.09
7,"Cc1nn(C)c2c1CCC[C@@H](C)Nc1nc(ncc1C(F)(F)F)N2 (single isomer, unassigned) [Ex-11.1, (R)- or (S)-1,3,7-Trimethyl-10-(trifluoromethyl)-4,5,6,7,8,14-hexahydro-1H-9,13-(azeno)pyrazolo[4,3-l][1,3,7]triazacyclotridecine]",8.49
8,"Cn1nc(C(F)(F)F)c2c1Nc1cc(c(Cl)cn1)N[C@@H]1COC[C@H]1CO2 [Ex-13.9, (10aS,13aS)-8-chloro-3-methyl-1-(trifluoromethyl)-3,4,10a,11,13a,14-hexahydro-10H,13H-5,9-(metheno)furo[3,4-k]pyrazolo[4,3-b][1]oxa[4,6,10]triazacyclotridecine]",8.49
9,"Cc1nn(C(C)C)c2c1OC[C@@H]1COC[C@H]1Nc1nc(ncc1C(F)(F)F)N2 [Ex-2.42, (10aS,13aS)-3-isopropyl-1-methyl-8-(trifluoromethyl)-3,4,10a,11,13a,14-hexahydro-10H,13H-5,9-(azeno)furo[3,4-k]pyrazolo[4,3-b][1]oxa[4,6,10]triazacyclotridecine]",9.93
10,"Cc1nn(C(C)(C)CO)c2c1Nc1ncc(C(F)(F)F)c(n1)N[C@H](C)CCO2 [Ex-7.3, (R)-2-(3,11-dimethyl-8-(trifluoromethyl)-10,11,12,13-tetrahydro-5,9-(azeno)pyrazolo[3,4-b][1]oxa[4,6,10]triazacyclotridecin-1(4H)-yl)-2-methylpropan-1-ol]",>10.09
11,"CC1CCOc2c(C3CC3)nn(C)c2Nc2ncc(C(F)(F)F)c(n2)N1 (single isomer, unassigned) [Ex-2.18, (R)- or (S)-3-cyclopropyl-1,7-dimethyl-10-(trifluoromethyl)-1,5,6,7,8,14-hexahydro-9,13-(azeno)pyrazolo[4,3-b][1]oxa[4,6,10]triazacyclotridecine]",6.65
12,COc1cccc2c1Nc1ncc(C(F)(F)F)c(n1)N[C@H]1COC[C@@H]1CO2 [Ex-15.1],>10.09
13,"O[C@@H]1COCC1n1nc(C2CC2)c2c1OC[C@H]1CC[C@@H]1Nc1nc(ncc1C(F)(F)F)N2 (single isomer, unassigned) [Ex-6.1, (3R,4S)-4-((10aR,12aR)- or (3R,4S)-4-((10aS,12aS)- or (3S,4R)-4-((10aR,12aR)- or (3S,4R)-4-((10aR,12aR)-3-cyclopropyl-8-(trifluoromethyl)-10,10a,11,12,12a,13-hexahydro-5,9-(azeno)cyclobuta[k]pyrazolo[3,4-b][1]oxa[4,6,10]triazacyclotridecin-1 (4H)-yl)tetrahydrofuran-3-ol]",7.94
14,"Cc1nn(C(C)C)c2c1OC[C@@H]1CC[C@H]1Nc1nc(ncc1Cl)N2 [Ex-2.61, (10aR,12aR)-8-chloro-3-isopropyl-1-methyl-3,4,10,10a,11,12,12a,13-octahydro-5,9-(azeno)cyclobuta[k]pyrazolo[4,3-b][1]oxa[4,6,10]triazacyclotridecine]",9.60
15,"(R)- or (S)-1-cyclopropyl-3,7-dimethyl-10- (trifluoromethyl)-1,5,6,7,8,14-hexahydro- 9,13-(azeno)pyrazolo[4,3- b][1]oxa[4,6,10]triazacyclotridecine [Ex-2.21]",9.00
16,"CCOC(=O)C(C)(C)n1nc(C(C)C)c2c1OCC[C@@H](C)Nc1nc(ncc1C(F)(F)F)N2 [Ex-1.12, ethyl (R)-2-(3-isopropyl-11-methyl-8-(trifluoromethyl)-10,11,12,13-tetrahydro-5,9-(azeno)pyrazolo[3,4-b][1]oxa[4,6,10]triazacyclotridecin-1(4H)-yl)-2-methylpropanoate]",<5.00
17,"Cc1nn(C2CCC2)c2c1OC[C@@H]1COC[C@H]1Nc1cc(ncc1C(F)(F)F)N2 [Ex-13.1, (10aR,13aR)-3-Cyclobutyl-1-methyl-8-(trifluoromethyl)-3,4,10a,11,13a,14-hexahydro-10H,13H-5,9-(metheno)furo[3,4-k]pyrazolo[4,3-b][1]oxa[4,6,10]triazacyclotridecine, TFA]",>10.09
18,"Cc1nn(C2CCC2)c2c1OC[C@H]1CN(CCO1)c1nc(ncc1C(F)(F)F)N2 (single isomer, unassigned) [Ex-21.1, (6R)- or (6S)-1-cyclobutyl-3-methyl-12-(trifluoromethyl)-1,5,6,8,9,16-hexahydro-11,15-(azeno)-6,10-methanopyrazolo[4,3-e][1,4]dioxa[7,9,13]triazacyclopentadecine]",6.09
19,"Cc1nn(C2CCC2)c2c1OC[C@@H]1COCC[C@H]1Nc1nc(ncc1C(F)(F)F)N2 [Ex-2.34, (4aR,16aS)- or (4aS,16aR)-12-cyclobutyl-14-methyl-7-(trifluoromethyl)-3,4,4a,5,11,12,16,16a-octahydro-1H-6,10-(azeno)pyrano[4,3-k]pyrazolo[4,3-b][1]oxa[4,6,10]triazacyclotridecine]",8.00
20,"Cc1nn(C2CCC2)c2c1OC[C@H]1CN(C[C@@H]1C)c1nc(ncc1C(F)(F)F)N2 (single isomer, unassigned) [Ex-20.1, (6S,7S)- or (6R,7R)-1-Cyclobutyl-3,7-dimethyl-11-(trifluoromethyl)-1,5,6,7,8,15-hexahydro-10,14-(azeno)-6,9-methanopyrazolo[4,3-b][1]oxa[4,6,10]triazacyclotetradecine]",5.84
21,"Cc1nn(C2CC2)c2c1O[C@@H]1CC[C@@H]1CNc1nc(ncc1C(F)(F)F)N2 [Ex-2.86, (11aR,13aR)- or (11aS,13aS)-3-cyclopropyl-1-methyl-8-(trifluoromethyl)-3,4,10,11,11a,12,13,13a-octahydro-5,9-(azeno)cyclobuta[l]pyrazolo[4,3-b][1]oxa[4,6,10]triazacyclotridecine]",8.13
